This note sets out measurements from publication PMC7606276, “The Antibacterial Effects of New N-Alkylpyridinium Salts on Planktonic and Biofilm Bacteria” (Frontiers in Microbiology, 2020).

Molecules are shown by their SMILES.

For one test, the system named is CHO-K1 cells. In words: MTT cell viability assay on CHO-K1 cells. The class given is cell-based, Chinese hamster. The settings on record: Cricetulus griseus, 24 h exposure. As for the experimental part:
Standard MTT assay (3-(4,5-dimethylthiazol-2-yl)-2,5-diphenyltetrazolium bromide; Sigma-Aldrich, Prague, Czechia) was used according to the manufacturer’s protocol on the CHO-K1 (Chinese hamster ovary, ECACC, Salisbury, United Kingdom) in order to compare the effect of different compounds within the series. The cells were cultured according to ECACC recommended conditions and seeded in a density of 8000 per well as described previously ([Soukup et al., 2020]). […] Thereafter, CHO-K1 cells were exposed to two-fold diluted series A, B, C or ten-fold diluted sodium hypochlorite for 24 h. Then the medium was replaced by a medium containing 0.5 mg/ml of MTT and the cells were allowed to produce formazan for approximately 3 h under surveillance. Thereafter, the medium with MTT was removed and crystals of formazan were dissolved in DMSO (100 μl/well). Cell viability was assessed spectrophotometrically by the amount of formazan produced. The absorbance was measured at 570 nm on Synergy HT (BioTek, Winooski, VT, United States). IC50 (half maximal inhibitory concentration) was then calculated from the control – subtracted triplicates using non-linear regression (four parameters) by GraphPad Prism 5.03 or 7.03 software (GraphPad Software Inc., San Diego, CA, United States). Final IC50 and SEM (standard error of the mean) values were obtained as a mean of three independent measurements.

Test [1] deals with E. faecalis biofilms on titanium surface. Nature of the test: Biofilm susceptibility assay, live/dead staining CLSM. The format is cell-based, Enterococcus faecalis. The settings on record: 250 μM. As for the experimental part: To grow the biofilms, an overnight culture of E. faecalis (average viable bacterial concentration of 1 × 10^8 CFU/ml) was diluted 100-fold in BHI. E. faecalis biofilms were formed on titanium radial disks (commercially pure titanium, grade 2) with 7 mm diameter and 1 mm thickness. Prior to the experiments all disks were sandblasted (FerroEcoBlast Europe; Microblast ceramic beads B120) to expose fresh titanium surface, cleaned in 70% ethanol and autoclaved at 134°C for 20 min. The biofilms were grown for 3 days at 37°C ± 1°C without shaking or changing of media to achieve a surface coverage of approximately 25% and a surface bacterial density of ∼1.5 × 10^11 bacteria […]. Biofilms grown on a titanium surface were exposed to 1.5 ml of A14, B14, and C14 dissolved in BHI for 1, 3, and 60 min. After treatment the individual disks were rinsed with saline solution to remove QACs as well as unattached bacteria. In laser treated biofilms samples were treated with QACs for 1 min followed by 10 s of Er:YAG – SSP laser treatment. The LightWalker Er:YAG (Fotona, Ljubljana, Slovenia) was set with the following parameters: laser wavelength 2940 nm; contact handpiece H14, Flat Sweeps fiber tip 400/14 positioned 5 mm above the biofilm disk, energy 20 mJ, frequency 15 Hz, water off, air off, single pulse modality – SSP (super short pulse – 50 μs). The titanium disks with their biofilm were positioned at the bottom of cylindrical irrigation system (7.5 mm diameter and 2 cm high) in the presence of 1.5 ml of either saline or the QAC dissolved in BHI. The antibacterial concentration was 250 μM which was the highest soluble QAC concentration in BHI broth. The rinsed biofilms were stained with 5 μL of premixed saline-diluted Syto 9 and propidium iodide stock solutions (1: 300) from LIVE/DEAD^TM BacLight^TM Bacterial Viability Kit L7012 (Thermo Fisher Scientific, Eugene, OR, United States). After 5 min of incubation in the dark the samples were observed by fluorescence microscope Zeiss Axio Observer Z1 equipped with confocal unit LSM 800 (CLSM). Z-stacks and tiles were taken at 100× or 20× magnification at three randomly selected view fields. Image acquisition and control of the microscope were performed with ZEN 2.3 (ZEISS GmbH, Germany). For the 100× magnification, blue 488 nm and yellow 561 nm lasers were set to 1% intensity, GaAsP PMT detectors to 700 V, pinhole to 71 μm, and the size of the acquired 8-bit images was 3476 × 3476 pixels. For the 20× magnification, blue 488 nm and yellow 561 nm lasers were set to 0.85% intensity, GaAsP PMT detectors to 700 V, pinhole to 50 μm and the size of acquired 8-bit images was 1306 × 1306 pixels. The typical Z-step of the Z-stack was 1 μm for 100× magnification and 3.26 μm for 20× magnification. The images were composed of four different view fields. A custom script was written (Image J) and used to evaluate the effect of treatment on the fraction of dead cells and biofilm surface coverage.

In general, IC50 refers to the concentration that inhibits the measured activity by half. As for `CCCCCCCCCCCCCC[n+]1ccccc1` [Compound A14], the IC50 with CHO-K1 cells amounted to 24.7 ± 0.2 µM. In addition, the “biofilm surface coverage change during the treatment” value in test [1] (1, 3 and 60 min of treatment) was “did not change significantly”. For the same molecule, the “proportion of live cells in biofilm” value in test [1] (after 60 min of treatment) was 18%.
